{"source": "patent US20250230193A1", "about": "“CYCLIC COMPOUND HAVING SELECTIVE KRAS INHIBITORY EFFECT ON HRAS AND NRAS” (CHUGAI SEIYAKU KABUSHIKI KAISHA, priority 2022, published 2025)", "key": {"[1]": {"target": "GDP-bound NRAS wild-type protein (Homo sapiens, UniProt P01111)", "sequence (P01111 whole entry)": "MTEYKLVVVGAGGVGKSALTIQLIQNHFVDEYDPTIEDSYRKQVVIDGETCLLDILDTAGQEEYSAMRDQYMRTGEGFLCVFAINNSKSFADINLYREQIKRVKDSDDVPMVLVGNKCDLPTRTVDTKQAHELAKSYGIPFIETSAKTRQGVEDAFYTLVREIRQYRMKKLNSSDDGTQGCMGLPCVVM", "assay": "Binding to NRAS by surface plasmon resonance (SPR), Single Cycle Kinetics", "conditions": "for NRAS/KRAS (ratio of KD value with respect to NRAS to KD value with respect to KRAS) / NRAS/KRAS (ratio of KD value for NRAS to KD value for KRAS): GDP-bound NRAS wild-type vs GDP-bound KRAS wild-type"}, "[2]": {"target": "GDP-bound HRAS wild-type protein (Homo sapiens, UniProt P01112)", "sequence (P01112 whole entry)": "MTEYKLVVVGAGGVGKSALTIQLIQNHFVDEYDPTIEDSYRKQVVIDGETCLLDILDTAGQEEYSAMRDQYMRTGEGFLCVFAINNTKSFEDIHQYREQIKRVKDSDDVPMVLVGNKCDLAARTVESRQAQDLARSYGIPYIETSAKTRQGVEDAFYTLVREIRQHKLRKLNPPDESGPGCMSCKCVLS", "assay": "Binding to HRAS by surface plasmon resonance (SPR), Single Cycle Kinetics", "conditions": "for HRAS/KRAS (ratio of KD value with respect to HRAS to KD value with respect to KRAS) / HRAS/KRAS (ratio of KD value for HRAS to KD value for KRAS): GDP-bound HRAS wild-type vs GDP-bound KRAS wild-type"}, "[3]": {"conditions": "KD ratio NRAS/KRAS, class symbols"}, "[4]": {"conditions": "KD ratio HRAS/KRAS, class symbols"}}, "note": "Where a SMILES comes first, the peptide text is derived from it. Bridges are numbered along the chain shown (N, C = ends). [ ]: non-standard residue; d: D form. The star is where a group is joined. hPhe(3-Cl-4-CF3) = N[C@@H](CCc1ccc(C(F)(F)F)c(Cl)c1)C(=O)O; NEtPhe(4-Me) = CCN[C@@H](Cc1ccc(C)cc1)C(=O)O; NMeD = CN[C@@H](CC(=O)O)C(=O)O; NMeL = CN[C@@H](CC(C)C)C(=O)O; NMeV = CN[C@H](C(=O)O)C(C)C; Morpholide = C1CN(*)CCO1; NMeA = CN[C@@H](C)C(=O)O; Ac5c = NC1(C(=O)O)CCCC1; Aze = O=C(O)[C@@H]1CCN1; Sar = CNCC(=O)O"}
{"smiles": "CCO[C@@H]1C[C@H]2C(=O)NC3(CC(C)(C)C3)C(=O)N(C)[C@@H](C(CC)CC)C(=O)N(C)[C@H](C(=O)N(C)C)CC(=O)N(C)[C@@H](CC3CC3)C(=O)N[C@@H]([C@@H](C)CC)C(=O)N(C)CC(=O)N(C)[C@H]3C/C=C\\CCN(C3=O)[C@@H](Cc3ccc(C(F)(F)F)cc3)C(=O)N(C)CC(=O)N[C@@H](CCc3cc(F)c(C(F)(F)F)c(F)c3)C(=O)N2C1", "note": "[PP2119]", "values": [{"measurement": "NRAS/KRAS (ratio of KD value with respect to NRAS to KD value with respect to KRAS)", "setting": "[1]; SPR", "value": "A (a compound having 10 or more and less than 20 is denoted as A)"}, {"measurement": "HRAS/KRAS (ratio of KD value with respect to HRAS to KD value with respect to KRAS)", "setting": "[2]; SPR", "value": "B (a compound having 3 or more and less than 10 is denoted as B)"}]}
{"smiles": "CC[C@H](C)[C@@H]1NC(=O)[C@H](CC(C)C)N(C)C(=O)C[C@@H](C(=O)N2CCOCC2)N(C)C(=O)[C@H](C2CCCC2)N(C)C(=O)C2(CCCC2)NC(=O)[C@@H]2CCCN2C(=O)[C@H](CCc2ccc(C(F)(F)F)c(Cl)c2)NC(=O)CN(C)C(=O)[C@H](Cc2ccc(OC(F)(F)F)cc2)N2CCCCC[C@@H](C2=O)N(C)C(=O)CN(C)C1=O", "note": "[PP0615]", "values": [{"measurement": "NRAS/KRAS (ratio of KD value with respect to GDP-bound NRAS wild-type protein to KD value with respect to KRAS)", "setting": "[1]; KD ratio NRAS/KRAS, SPR", "value": "B (a compound having 3 or more and less than 10 is denoted as B)"}, {"measurement": "HRAS/KRAS (ratio of KD value with respect to GDP-bound HRAS wild-type protein to KD value with respect to KRAS)", "setting": "[2]; KD ratio HRAS/KRAS, SPR", "value": "B (a compound having 3 or more and less than 10 is denoted as B)"}]}
{"smiles": "CCO[C@@H]1C[C@H]2C(=O)NC3(CCC3)C(=O)N(C)[C@@H](C3CCCC3)C(=O)N(C)[C@H](C(=O)N(C)C)CC(=O)N(C)[C@@H](CC(C)C)C(=O)N[C@@H]([C@@H](C)CC)C(=O)N(C)CC(=O)N(C)[C@H]3CCCCCN(C3=O)[C@@H](Cc3ccc(C(F)(F)F)cc3)C(=O)N(C)CC(=O)N[C@@H](CCc3cc(F)c(C(F)(F)F)c(F)c3)C(=O)N2C1", "note": "[PP0469]", "values": [{"measurement": "NRAS/KRAS (ratio of KD value with respect to GDP-bound NRAS wild-type protein to KD value with respect to KRAS)", "setting": "[1]; KD ratio NRAS/KRAS, SPR", "value": "B (a compound having 3 or more and less than 10 is denoted as B)"}, {"measurement": "HRAS/KRAS (ratio of KD value with respect to GDP-bound HRAS wild-type protein to KD value with respect to KRAS)", "setting": "[2]; KD ratio HRAS/KRAS, SPR", "value": "B (a compound having 3 or more and less than 10 is denoted as B)"}]}
{"smiles": "CCC(CC)[C@H]1C(=O)N(C)[C@H](C(=O)N(C)C)CC(=O)N(C)[C@@H](COC)C(=O)N[C@@H]([C@@H](C)CC)C(=O)N(C)CC(=O)N(C)[C@H]2C/C=C\\CCN(C2=O)[C@@H](Cc2ccc(C)cc2)C(=O)N(C)CC(=O)N[C@@H](CCc2ccc(Cl)c(Cl)c2)C(=O)N2C[C@H](OC3CCCC3)C[C@H]2C(=O)N(C)C2(CC(C)(C)C2)C(=O)N1C", "note": "[PP2818]", "values": [{"measurement": "NRAS/KRAS (ratio of KD value with respect to GDP-bound NRAS wild-type protein to KD value with respect to KRAS)", "setting": "[1]; [3]", "value": "A (a compound having 10 or more and less than 20 is denoted as A)"}, {"measurement": "HRAS/KRAS (ratio of KD value with respect to GDP-bound HRAS wild-type protein to KD value with respect to KRAS)", "setting": "[2]; [4]", "value": "A (a compound having 10 or more and less than 20 is denoted as A)"}]}
{"smiles": "CCOC[C@H]1C(=O)N[C@@H]([C@@H](C)CC)C(=O)N(C)CC(=O)N(C)[C@H]2C/C=C\\CCN(C2=O)[C@@H](Cc2ccc(C(F)(F)F)cc2)C(=O)N(C)CC(=O)N[C@@H](CCc2ccc(C(F)(F)F)c(OC)c2)C(=O)N2C[C@H](OCC)C[C@H]2C(=O)NC2(CC(C)(C)C2)C(=O)N(C)[C@@H](CC2CCC2)C(=O)N(C)[C@H](C(=O)N(C)C)CC(=O)N1C", "note": "[PP2765]", "values": [{"measurement": "NRAS/KRAS (ratio of KD value with respect to GDP-bound NRAS wild-type protein to KD value with respect to KRAS)", "setting": "[1]; [3]", "value": "A (a compound having 10 or more and less than 20 is denoted as A)"}, {"measurement": "HRAS/KRAS (ratio of KD value with respect to GDP-bound HRAS wild-type protein to KD value with respect to KRAS)", "setting": "[2]; [4]", "value": "A (a compound having 10 or more and less than 20 is denoted as A)"}]}
{"smiles": "CCC[C@H]1C(=O)N[C@@H](C2CCOCC2)C(=O)N(C)CC(=O)N(C)[C@H]2C/C=C\\CCN(C2=O)[C@@H](Cc2ccc(C)cc2)C(=O)N(C)CC(=O)N[C@@H](CCc2ccc(C(F)(F)F)c(Cl)c2)C(=O)N2C[C@H](OCC)C[C@H]2C(=O)NC2(CC(C)(C)C2)C(=O)N(C)[C@@H](C2CCCC2)C(=O)N(C)[C@H](C(=O)N(C)C)CC(=O)N1C", "note": "[PP3002]", "values": [{"measurement": "NRAS/KRAS (ratio of KD value with respect to GDP-bound NRAS wild-type protein to KD value with respect to KRAS)", "setting": "[1]; KD ratio NRAS/KRAS, SPR, GDP-bound wild-type proteins", "value": "A (a compound having 10 or more and less than 20 is denoted as A)"}, {"measurement": "HRAS/KRAS (ratio of KD value with respect to GDP-bound HRAS wild-type protein to KD value with respect to KRAS)", "setting": "[2]; KD ratio HRAS/KRAS, SPR, GDP-bound wild-type proteins", "value": "A (a compound having 10 or more and less than 20 is denoted as A)"}]}
{"smiles": "CCC[C@@H]1C[C@H]2C(=O)NC3(CCCC3)C(=O)N(C)[C@@H](C3CCCC3)C(=O)N(C)[C@H](C(=O)N(C)C)CC(=O)N(C)[C@@H](CC)C(=O)N[C@@H]([C@@H](C)CC)C(=O)N(C)CC(=O)N(C)[C@H]3C/C=C\\CCN(C3=O)[C@@H](Cc3ccc(C)cc3)C(=O)N(C)CC(=O)N[C@@H](CCc3cc(F)c(C(F)(F)F)c(F)c3)C(=O)N2C1", "note": "[PP2227]", "values": [{"measurement": "NRAS/KRAS (ratio of KD value with respect to NRAS to KD value with respect to KRAS)", "setting": "[1]; SPR", "value": "A (a compound having 10 or more and less than 20 is denoted as A)"}, {"measurement": "HRAS/KRAS (ratio of KD value with respect to HRAS to KD value with respect to KRAS)", "setting": "[2]; SPR", "value": "A (a compound having 10 or more and less than 20 is denoted as A)"}]}
{"smiles": "CC[C@H](C)[C@@H]1NC(=O)[C@H](CC(C)C)N(C)C(=O)C[C@@H](C(=O)N2CCOCC2)N(C)C(=O)[C@H](C(C)C)N(C)C(=O)C2(CCCC2)NC(=O)[C@@H]2CCCN2C(=O)[C@H](CCc2ccc(C(F)(F)F)c(Cl)c2)NC(=O)CN(C)C(=O)[C@H](Cc2ccc(C)cc2)N(CC)C(=O)[C@@H]2CCN2C(=O)[C@H](C)N(C)C1=O", "note": "[PP0015] ([NMeL]I[NMeA][Aze][NEtPhe(4-Me)][Sar][hPhe(3-Cl-4-CF3)]P[Ac5c][NMeV][NMeD]-Morpholide; lactam N-11)", "values": [{"measurement": "NRAS/KRAS (ratio of KD for GDP-bound NRAS wild-type to KD for KRAS)", "setting": "[1]; KD ratio NRAS/KRAS, SPR", "value": "C (A compound having a KD ratio of 0.1 or more and less than 3 is denoted as C)"}, {"measurement": "HRAS/KRAS (ratio of KD for GDP-bound HRAS wild-type to KD for KRAS)", "setting": "[2]; KD ratio HRAS/KRAS, SPR", "value": "C (A compound having a KD ratio of 0.1 or more and less than 3 is denoted as C)"}]}
{"smiles": "CC[C@H](C)[C@@H]1NC(=O)[C@H](C2CC2)N(C)C(=O)C[C@@H](C(=O)N(C)C)N(C)C(=O)[C@H](C2CCCC2)N(C)C(=O)C2(CCC2)N(C)C(=O)[C@@H]2C[C@@H](C)CN2C(=O)[C@H](CCc2cc(F)c(C(F)(F)F)c(F)c2)NC(=O)CN(C)C(=O)[C@H](Cc2ccc(C)cc2)N2CC/C=C\\C[C@@H](C2=O)N(C)C(=O)CN(C)C1=O", "note": "[PP1788]", "values": [{"measurement": "NRAS/KRAS (ratio of KD value for NRAS to KD value for KRAS)", "setting": "[1]; SPR", "value": "B (a compound having 3 or more and less than 10 is denoted as B)"}, {"measurement": "HRAS/KRAS (ratio of KD value for HRAS to KD value for KRAS)", "setting": "[2]; SPR", "value": "B (a compound having 3 or more and less than 10 is denoted as B)"}]}
{"smiles": "CC[C@H](C)[C@@H]1NC(=O)[C@H](C2CC2)N(C)C(=O)C[C@@H](C(=O)N(C)C)N(C)C(=O)[C@H](C2CCCC2)N(C)C(=O)C2(CCCC2)N(C)C(=O)[C@@H]2C[C@@H](C)CN2C(=O)[C@H](CCc2cc(F)c(C(F)(F)F)c(F)c2)NC(=O)CN(C)C(=O)[C@H](Cc2ccc(C)cc2)N2CC/C=C\\C[C@@H](C2=O)N(C)C(=O)CN(C)C1=O", "note": "[PP1813]", "values": [{"measurement": "NRAS/KRAS (ratio of KD value for NRAS to KD value for KRAS)", "setting": "[1]; SPR", "value": "A (a compound having 10 or more and less than 20 is denoted as A)"}, {"measurement": "HRAS/KRAS (ratio of KD value for HRAS to KD value for KRAS)", "setting": "[2]; SPR", "value": "B (a compound having 3 or more and less than 10 is denoted as B)"}]}
{"smiles": "CCO[C@@H]1C[C@H]2C(=O)NC3(CCC3)C(=O)N(C)[C@@H](C3CCCC3)C(=O)N(C)[C@H](C(=O)N(C)C)CC(=O)N(C)[C@@H](COC)C(=O)N[C@@H]([C@@H](C)CC)C(=O)N(C)CC(=O)N(C)[C@H]3CCCCN(C3=O)[C@@H](Cc3ccc(C(F)(F)F)cc3)C(=O)N(C)CC(=O)N[C@@H](CCc3cc(F)c(C(F)(F)F)c(F)c3)C(=O)N2C1", "note": "[PP0704]", "values": [{"measurement": "NRAS/KRAS (ratio of KD value with respect to GDP-bound NRAS wild-type protein to KD value with respect to KRAS)", "setting": "[1]; KD ratio NRAS/KRAS, SPR", "value": "C (A compound having a KD ratio of 0.1 or more and less than 3 is denoted as C)"}, {"measurement": "HRAS/KRAS (ratio of KD value with respect to GDP-bound HRAS wild-type protein to KD value with respect to KRAS)", "setting": "[2]; KD ratio HRAS/KRAS, SPR", "value": "C (A compound having a KD ratio of 0.1 or more and less than 3 is denoted as C)"}]}
